According to US11279737B2, “Antimicrobial peptide variants and uses thereof” (ANTINBIO, INC., priority 2019, dated 2022):
Values after ≈ are worked out from the molar mass of the structure shown. Where a SMILES comes first, the peptide text is derived from it. Bridges are numbered along the chain shown (N, C = ends).

Tests used:
[1] = test system: S. epidermidis ATCC 14990; settings: for Minimal inhibitory concentration (MIC): ATCC 14990
[2] = test system: S. aureus MRSA ATCC 43300; settings: for Minimal inhibitory concentration (MIC): ATCC 43300; for antimicrobial activity compared to wild type hegrisin (in words): S. aureus MRSA ATCC 43300
S. aureus ATCC 6538 [3] = assay: inhibition zone assay; settings: 10 μg peptide per hole, 37° C., 16-18 hours
S. aureus ATCC 6538 [4] = settings: for Minimal inhibitory concentration (MIC): ATCC 6538; for antimicrobial activity compared to wild type hegrisin (in words): S. aureus ATCC 6538, lower MIC values
human erythrocytes = assay: hemolytic assay; format: cell-based; settings: FIG. 2; for cell lysis (hemolysis) of human erythrocytes: peptide 0.5-500 μg/ml, 37° C., 60 minutes
Description: For the hemolysis assays, human erythrocytes were obtained from healthy donors, washed 3 times using sterilized PBS and re-suspended to a concentration of 2% (v/v) with PBS. The hegrisin, HCN2016-01 peptide, and plectasin (control) were diluted to concentrations of 500, 250, 125, 62.5, 32, 16, 8, 4, 2, 1, and 0.5 μg/ml. A 100 μL solution of each peptide and a 100 μL suspension of red blood cells were mixed and added to the wells of a 96-well plate. PBS was used as negative control and Triton X-100 was used as a positive control.
The samples were incubated at 37° C. for 60 minutes and gently stirred during the incubation period. Then, the samples were centrifuged at 2000 rpm for 5 minutes. A total of 100 μL of the supernatant in each well was transferred to a new 96-well plate and absorbance was measured at 490 nm using a microplate reader (Molecular Devices, USA).
For hemolysis assays, human erythrocytes were obtained from healthy donors, washed 3 times using sterilized PBS, and re-suspended to a concentration of 2% (v/v) with PBS. The HCN2016-01 peptide (SEQ ID NO: 2) and plectasin (control) were diluted to concentrations of 500; 250; 125; 62.5; 32; 16; 8; 4; 2; 1; and 0.5 μg/ml. A 100 μL of each peptide solution was mixed with a 100 μL solution of a red blood cell suspension and added to separate wells of a 96-well plate. PBS was used as negative control and Triton X-100 was used as a positive control. The samples were incubated at 37° C. for 60 minutes and gently stirred during the incubation period. The samples were then centrifuged at 2000 rpm for 5 minutes. A total of 100 μL of the supernatant in each well was transferred to a new 96-well plate and absorbance was measured at 490 nm using a microplate reader (Molecular Devices, USA).

Row | Molecule | Minimal inhibitory concentration (MIC) [1] | Minimal inhibitory concentration (MIC) [2] | Activity (antimicrobial activity relative to unmodified hegrisin, zones of growth inhibition) (S. aureus ATCC 6538 [3]) | Minimal inhibitory concentration (MIC) (S. aureus ATCC 6538 [4]) | antimicrobial activity compared to wild type hegrisin (in words) (S. aureus ATCC 6538 [4]) | antimicrobial activity compared to wild type hegrisin (in words) [2] | antimicrobial activity compared to wild type hegrisin (in words) ([1]; S. epidermidis ATCC 14990) | cell lysis (hemolysis) of human erythrocytes (human erythrocytes) | change of cell lysis with rising concentration (human erythrocytes; concentration increased from 62.5 μg/ml to 500 μg/ml)
1 | CC[C@H](C)[C@@H]1NC(=O)CNC(=O)CNC(=O)[C@H](Cc2ccccc2)NC(=O)[C@H](CCCCN)NC(=O)[C@@H]2CSSC[C@H](NC(=O)[C@H](CO)NC(=O)[C@H](Cc3c[nH]c4ccccc34)NC(=O)CN)C(=O)N[C@@H](CC(N)=O)C(=O)N[C@@H]([C@@H](C)CC)C(=O)N[C@@H](Cc3c[nH]c4ccccc34)C(=O)NCC(=O)NCC(=O)N[C@@H](CC(N)=O)C(=O)N[C@@H](CC(=O)O)C(=O)N[C@@H](CCC(=O)O)C(=O)N3CCC[C@H]3C(=O)N[C@H]3CSSC[C@H](NC1=O)C(=O)N[C@@H](CCCCN)C(=O)N[C@H](C(=O)N[C@@H](Cc1ccc(O)cc1)C(=O)O)CSSC[C@H](NC(=O)[C@H](Cc1c[nH]cn1)NC(=O)[C@H](CCC(N)=O)NC(=O)[C@H](Cc1c[nH]cn1)NC3=O)C(=O)N[C@@H](CCCCN)C(=O)N[C@@H](CO)C(=O)N[C@@H]([C@@H](C)CC)C(=O)N[C@@H](CCCNC(=N)N)C(=O)NCC(=O)N[C@@H](Cc1ccc(O)cc1)C(=O)N[C@@H](CCCNC(=N)N)C(=O)NCC(=O)NCC(=O)N[C@@H](Cc1ccc(O)cc1)C(=O)N2 [HCN2016-02] (H-GWSCNIWGGNDEPCHQHCKSIRGYRGGYCKFGGICKCY-OH; disulfide 4-29, 14-35, 18-37 (inferred); N-terminus and C-terminus assumed) | 1.40 µg/mL (≈ 0.327 µM) | 2.80 µg/mL (≈ 0.654 µM) | 2 | 1.40 µg/mL (≈ 0.327 µM) | improved antimicrobial activity |  |  |  | 
2 | CC[C@H](C)[C@@H]1NC(=O)[C@H](CO)NC(=O)[C@H](CCCCN)NC(=O)[C@@H]2CSSC[C@@H](C(=O)N[C@@H](Cc3ccc(O)cc3)C(=O)O)NC(=O)[C@H](CCCCN)NC(=O)[C@@H]3CSSC[C@H](NC(=O)[C@@H]4CCCN4C(=O)[C@H](CCCCN)NC(=O)[C@H](CC(=O)O)NC(=O)[C@H](CC(N)=O)NC(=O)CNC(=O)CNC(=O)[C@H](Cc4ccccc4)NC(=O)[C@H]([C@@H](C)CC)NC(=O)[C@H]([C@@H](C)O)NC(=O)[C@@H](NC(=O)CNC(=O)[C@H](Cc4ccccc4)NC(=O)CN)CSSC[C@H](NC(=O)[C@H](Cc4ccc(O)cc4)NC(=O)CNC(=O)CNC(=O)[C@H](CCCCN)NC(=O)[C@H](Cc4ccc(O)cc4)NC(=O)CNC(=O)[C@H](CCCCN)NC1=O)C(=O)N[C@@H](CCCCN)C(=O)N[C@@H](C(C)C)C(=O)NCC(=O)NCC(=O)N[C@@H](C(C)C)C(=O)N3)C(=O)N[C@@H](Cc1c[nH]cn1)C(=O)N[C@@H](CCCNC(=N)N)C(=O)N[C@@H](Cc1c[nH]cn1)C(=O)N2 [HCN2016-03] (H-GFGCTIFGGNDKPCHRHCKSIKGYKGGYCKVGGVCKCY-OH; disulfide 4-29, 14-35, 18-37 (inferred); N-terminus and C-terminus assumed) | 1.30 µg/mL (≈ 0.32 µM) | 0.81 µg/mL (≈ 0.199 µM) | 2 | 1.33 µg/mL (≈ 0.327 µM) | improved antimicrobial activity | improved antimicrobial activity |  |  | 
3 | CC[C@H](C)[C@@H]1NC(=O)CNC(=O)CNC(=O)[C@H](CC(C)C)NC(=O)[C@H](CCCCN)NC(=O)[C@@H]2CSSC[C@H](NC(=O)[C@H](CO)NC(=O)[C@H](Cc3c[nH]c4ccccc34)NC(=O)CN)C(=O)NCC(=O)N[C@@H](Cc3ccccc3)C(=O)N[C@@H](Cc3ccccc3)C(=O)NCC(=O)NCC(=O)N[C@@H](CC(N)=O)C(=O)N[C@@H](CC(=O)O)C(=O)N[C@@H](CCC(=O)O)C(=O)N3CCC[C@H]3C(=O)N[C@H]3CSSC[C@H](NC1=O)C(=O)N[C@@H](CCCCN)C(=O)N[C@H](C(=O)N[C@@H](Cc1ccc(O)cc1)C(=O)O)CSSC[C@H](NC(=O)[C@H](Cc1c[nH]cn1)NC(=O)[C@H](CCC(N)=O)NC(=O)[C@H](Cc1c[nH]cn1)NC3=O)C(=O)N[C@@H](CCCCN)C(=O)N[C@@H](CO)C(=O)N[C@@H]([C@@H](C)CC)C(=O)N[C@@H](CCCNC(=N)N)C(=O)NCC(=O)N[C@@H](Cc1ccc(O)cc1)C(=O)N[C@@H](CCCNC(=N)N)C(=O)NCC(=O)NCC(=O)N[C@@H](Cc1ccc(O)cc1)C(=O)N2 [HCN2016-04] (H-GWSCGFFGGNDEPCHQHCKSIRGYRGGYCKLGGICKCY-OH; disulfide 4-29, 14-35, 18-37 (inferred); N-terminus and C-terminus assumed) | 0.33 µg/mL (≈ 0.0789 µM) | 0.86 µg/mL (≈ 0.206 µM) | 2 | 0.40 µg/mL (≈ 0.0956 µM) | improved antimicrobial activity | improved antimicrobial activity | improved antimicrobial activity |  | 
4 | CC[C@H](C)[C@@H]1NC(=O)CNC(=O)CNC(=O)[C@H](Cc2ccccc2)NC(=O)[C@H](CCCCN)NC(=O)[C@@H]2CSSC[C@H](NC(=O)CNC(=O)[C@H](Cc3c[nH]c4ccccc34)NC(=O)CN)C(=O)NCC(=O)N[C@@H](Cc3ccccc3)C(=O)N[C@@H](Cc3ccccc3)C(=O)NCC(=O)NCC(=O)N[C@@H](CC(N)=O)C(=O)N[C@@H](CC(=O)O)C(=O)N[C@@H](CCC(=O)O)C(=O)N3CCC[C@H]3C(=O)N[C@H]3CSSC[C@H](NC1=O)C(=O)N[C@@H](CCCCN)C(=O)N[C@H](C(=O)N[C@@H](Cc1ccc(O)cc1)C(=O)O)CSSC[C@H](NC(=O)[C@H](Cc1c[nH]cn1)NC(=O)[C@H](CCC(N)=O)NC(=O)[C@H](Cc1c[nH]cn1)NC3=O)C(=O)N[C@@H](CCCCN)C(=O)N[C@@H](CO)C(=O)N[C@@H]([C@@H](C)CC)C(=O)N[C@@H](CCCNC(=N)N)C(=O)NCC(=O)N[C@@H](Cc1ccc(O)cc1)C(=O)N[C@@H](CCCNC(=N)N)C(=O)NCC(=O)NCC(=O)N[C@@H](Cc1ccc(O)cc1)C(=O)N2 [HCN2016-05] (H-GWGCGFFGGNDEPCHQHCKSIRGYRGGYCKFGGICKCY-OH; disulfide 4-29, 14-35, 18-37 (inferred); N-terminus and C-terminus assumed) | 2.80 µg/mL (≈ 0.669 µM) | 2.88 µg/mL (≈ 0.688 µM) | 2 | 1.44 µg/mL (≈ 0.344 µM) | improved antimicrobial activity |  |  |  | 
5 | CC[C@H](C)[C@@H]1NC(=O)[C@H](CO)NC(=O)[C@H](CCCCN)NC(=O)[C@@H]2CSSC[C@@H](C(=O)N[C@@H](Cc3ccc(O)cc3)C(=O)O)NC(=O)[C@H](CCCCN)NC(=O)[C@@H]3CSSC[C@H](NC(=O)[C@@H]4CCCN4C(=O)[C@H](CCCCN)NC(=O)[C@H](CC(=O)O)NC(=O)[C@H](CC(N)=O)NC(=O)CNC(=O)CNC(=O)[C@H](Cc4c[nH]c5ccccc45)NC(=O)[C@H]([C@@H](C)CC)NC(=O)[C@H]([C@@H](C)O)NC(=O)[C@@H](NC(=O)CNC(=O)[C@H](Cc4ccccc4)NC(=O)CN)CSSC[C@H](NC(=O)[C@H](Cc4ccc(O)cc4)NC(=O)CNC(=O)CNC(=O)[C@H](CCCCN)NC(=O)[C@H](Cc4ccc(O)cc4)NC(=O)CNC(=O)[C@H](CCCCN)NC1=O)C(=O)N[C@@H](CCCCN)C(=O)N[C@@H](C(C)C)C(=O)NCC(=O)NCC(=O)N[C@@H](C(C)C)C(=O)N3)C(=O)N[C@@H](Cc1c[nH]cn1)C(=O)N[C@@H](CCCNC(=N)N)C(=O)N[C@@H](Cc1c[nH]cn1)C(=O)N2 [Hegrisin, reference compound] (H-GFGCTIWGGNDKPCHRHCKSIKGYKGGYCKVGGVCKCY-OH; disulfide 4-29, 14-35, 18-37; N-terminus and C-terminus assumed) | 0.38 µg/mL (≈ 0.0926 µM) | 1.34 µg/mL (≈ 0.326 µM) | 1 | 1.67 µg/mL (≈ 0.407 µM) |  |  |  | no significant lysis | 
6 | plectasin: defensin antimicrobial peptide isolated from the mushroom Pseudoplectania nigrella; control in the hemolysis assay (GFGCNGPWDEDDMQCHNHCKSIKGYKGGYCAKGGFVCKCY; PLECTASIN) |  |  |  |  |  |  |  | lysis at nearly all concentrations | increased significantly
